The values that follow come from patent US7317001B2, “Use of ramoplanin to treat diseases associated with the use of antibiotics” (priority 2002, dated 2008).

In data set [1] the test system is C. difficile strain 4013. Put plainly: Hamster CDAD induced by oral C. difficile challenge plus clindamycin. Type of data set: in vivo, Syrian hamsters. To be noted: for animals surviving the study: all doses. As for the experimental part:
In a second study, animals were challenged orally with a bacterial suspension of C. difficile and then administered a single s.c. injection of 100 mg/kg clindamycin. Oral treatment with ramoplanin or vancomycin at 25-50-100 mg/kg or metronidazole at 100-200-400 mg/kg started 24 hours after clindamycin administration and lasted for five days. Hamsters were weighed and observed every 24 hours for evidence of diarrhea or moribund conditions, and the cecal contents were analyzed for C. difficile toxin A (ELISA).

The test system of data set [2] is C. difficile. Description: Hamster model of clindamycin-induced C. difficile-associated colitis. Type of data set: in vivo, Syrian hamsters. To be noted: oral 50 mg/kg/day for 5 days; for survival rate: from 24 hours after clindamycin 100 mg/kg s.c., monitored 20 days. Here is the method:
To evaluate the in vivo efficacy of ramoplanin in the treatment of C. difficile-associated colitis, ramoplanin was tested in a hamster model of clindamycin (CL)-induced colitis in comparison with both vancomycin and metronidazole. Animals were treated with a single subcutaneous (s.c.) injection of 100 mg/kg clindamycin, and after 24 hours received oral ramoplanin or vancomycin at 50 mg/kg/day for 5 days. Animals were observed daily for the presence or absence of diarrhea. Necropsies were performed on some animals that died during the experiment, and cecal contents were assayed for C. difficile toxin A. Hamsters were monitored for 20 days, and the cumulative mortality during this period was recorded (FIG. 1). […] C. difficile toxin A was always detected in these animals. […] All hamsters that died had gross pathologic evidence of enterocolitis and cecal contents were positive for Toxin A.

Data set [3] relates to C. difficile. Description: Recovery of C. difficile spores or vegetative cells from clindamycin-treated animals. The data set is classed as in vivo, hamster. To be noted: after single dose of clindamycin and treatment. As for the experimental part: In another study, animals were administered a single dose of clindamycin and then treated with either vancomycin or ramoplanin.

The nature of data set [4]: In vitro interaction of ramoplanin with human intestinal contents. The source says: The in vitro interaction of ramoplanin with human intestinal contents was studied. […] The binding and the subsequent release of ramoplanin from feces would likely result in long-lasting concentrations in the intestinal tract.
The test system of data set [5] is Gram-negative bacteria (enteric bacteria and Bacteroides spp.) or yeast. Put plainly: Multiple dose study, antibacterial activity on stool microflora: Gram-negative bacteria and yeast. Type of data set: in vivo, human. As for the experimental part:
(§1) The antibacterial activity of ramoplanin on the stool microflora was assessed in a subset of the subjects. Microbial concentrations (i.e., the number of organisms per gram of fecal matter) were determined at the following time points: Day −4 (pre-treatment), Days 4 and 10 (treatment), and Days 7 and 24 (follow-up). Tolerability and absorption were also investigated.

The test system of data set [6] is Clostridium spp. Put plainly: Multiple dose study, antibacterial activity on stool microflora: Clostridium spp. Type of data set: in vivo, human. As for the experimental part: as §1
Data set [7] in a line: Single oral dose study in healthy male volunteers: absorption and fecal recovery. Type of data set: in vivo, human. Here is the method: The absorption, tolerability, and recovery of ramoplanin following single dose oral administration were investigated in male volunteers. Ramoplanin was administered as an aqueous solution at a dose of 100, 200, 500, or 1000 mg to fasting subjects. Serum samples were obtained prior to drug administration of ramoplanin and 0.5, 1, 2, 3, 6, 9, 12, 24, 48, 72, and 96 hours after treatment. Urine samples were collected prior to administration of ramoplanin and over the periods 0-3,3-6, 6-12, 12-24, 24-48, 48-72, and 72-96 hours after dosing. Fecal samples were collected prior to dosing and over the periods 0-16 (Day 1), 16-40 (Day 2), 40-64 (Day 3), 64-88 (Day 4), and 88-96 (Day 5) hours after dosing. A microbiological assay employing Bacillis subtilis ATCC 6633 as the test organism was used to determine ramoplanin concentrations in serum, urine, and feces. The limits of quantitation for this assay were 0.02 μg/mL in serum, 0.012 μg/mL in urine, and 3 μg/g in feces. Tolerability was assessed on the basis of clinical signs and symptoms and the results of blood and urine laboratory tests.

The test system of data set [8] is Gram-positive bacteria (staphylococci, streptococci, enterococci). Put plainly: Multiple dose study, antibacterial activity on stool microflora: Gram-positive bacteria. The data set is classed as in vivo, human. Here is the method:
as §1

Data set [9] relates to VRE. Put plainly: Multiple dose study in asymptomatic carriers of intestinal VRE. Type of data set: in vivo, human. To be noted: for patients remaining VRE free: Day 14 (seven days after cessation). As for the experimental part: Patients identified as asymptomatic carriers of VRE were administered placebo or one of two dosages (100 mg, 400 mg) of ramoplanin BID (twice daily) for seven days. Patients were assessed by rectal swab on Days 7, 14, and 21 to determine the presence or absence of VRE. On Days 45 and 90, stool samples were analyzed for long-term effects of ramoplanin on the recurrence of, or reinfection with, VRE. All VRE isolates were tested for susceptibility to ramoplanin.

Data set [10] concerns C. difficile strain 4013. Description: Hamster CDAD, different durations of treatment. The data set is classed as in vivo, Syrian hamsters. To be noted: ramoplanin 50 mg/kg oral daily for 3 days versus vancomycin 50 mg/kg for 5 days. Here is the method: Hamsters were inoculated with C. difficile on day 0 and then administered 100 mg/kg clindamycin s.c. on day 1. Hamsters received daily oral doses of 50 mg/kg ramoplanin or vancomycin for 3 or 5 days starting on day 2.

Data set [11] is described as follows: Multiple oral dose study in healthy male volunteers: absorption and fecal concentrations. Type of data set: in vivo, human. Here is the method: Healthy male volunteers were administered 200, 400, or 800 mg ramoplanin twice-a-day, for ten consecutive days. The predetermined dose was reconstituted in 5 mL water per vial, mixed with 50 mL of sweetened, aromatized solution, and immediately administered orally to the subjects.
No absorption from the human gastrointestinal tract was observed.

As for `Cc1ncc([N+](=O)[O-])n1CCO` [metronidazole], the “animals surviving the study” value in [1] (oral for five days) is given as “No animals treated with vancomycin or metronidazole survived the study”. In addition, the prolonged survival in [1] (oral for five days, ramoplanin or vancomycin 25-50-100 mg/kg, metronidazole 100-200-400 mg/kg) is on record as 9 days.

Regarding `CN[C@H](CC(C)C)C(=O)N[C@H]1C(=O)N[C@@H](CC(N)=O)C(=O)N[C@H]2C(=O)N[C@H]3C(=O)N[C@H](C(=O)N[C@H](C(=O)O)c4cc(O)cc(O)c4-c4cc3ccc4O)[C@H](O)c3ccc(c(Cl)c3)Oc3cc2cc(c3O[C@@H]2O[C@H](CO)[C@@H](O)[C@H](O)[C@H]2O[C@H]2C[C@](C)(N)[C@H](O)[C@H](C)O2)Oc2ccc(cc2Cl)[C@H]1O` [vancomycin, reference compound], in data set [2], the “prolonging survival and protecting animals from death” value is given as “highly effective”; the survival rate was 20%. The “animals surviving the study” value in data set [1] (oral for five days) was “No animals treated with vancomycin or metronidazole survived the study”. For the same molecule, the “recovery of C. difficile spores or vegetative cells” value in [3] is on record as “C. difficile spores were recovered from some of the animals”.

With ramoplanin, the “prolonging survival and protecting animals from death” value in data set [2] is listed as “highly effective”. Besides, the survival rate in [2] was 80%. Also, the “survival at the end of observation period” value in [1] (100 mg/kg oral for five days) is given as 20%. Further, the “time of death compared to vancomycin-treated animals” value in data set [1] (oral for five days) was “delayed compared to that of vancomycin-treated animals”. In addition, the “binding to solid components of feces” value in data set [4] is “bind reversibly to solid components of feces”. The “microbiological activity in feces” value in data set [4] is listed as “microbiologically active in feces”. Besides, the “activity against Gram-negative flora in feces” value in data set [5] (200, 400 or 800 mg BID for 10 days) is reported as “not effective”. Also, the “effect on Gram-negative bacteria (enteric bacteria and Bacteroides spp.) or yeast of the stool” value in data set [5] (multiple dose, ten days) is listed as “no effect”. For the same molecule, the “recovery of C. difficile spores or vegetative cells” value in [3] is reported as “No C. difficile spores or vegetative cells were recovered”. Further, the “clostridial load in the two subjects carrying ramoplanin- and vancomycin-resistant Clostridium spp. (C. rectum and C. bejerinckii)” value in [6] (multiple dose, ten days) is recorded as “no variation in the clostridial load”. Moreover, in data set [6] (multiple dose, ten days), the “subjects with Clostridium spp. concentration reduced below detectable levels” value is reported as 10 of 12. Further, the “ramoplanin- or vancomycin-resistant C. difficile strains in stool” value in [6] (pre- or post-treatment) was “No ramoplanin- or vancomycin-resistant strain of C. difficile was detected”. Besides, the “mean cumulative recovery in feces, of the administered dose” value in data set [7] (100 mg single oral dose) came to 67.7%; in data set [7] (200 mg single oral dose), 48.5%; in data set [7] (500 mg single oral dose), 52.8%; in [7] (1000 mg single oral dose) it was 46.4%. Also, the “mean maximum concentration in feces” value in data set [7] (100 mg single oral dose) amounted to 214 µg/g; in [7] (200 mg single oral dose) it was 287 µg/g; in data set [7] (500 mg single oral dose), 1655 µg/g; in data set [7] (1000 mg single oral dose) it was 1835 µg/g. In addition, the “range of cumulative recovery in feces” value is 55.7-84% in [7] (100 mg single oral dose), 39.3-56.5% in data set [7] (200 mg single oral dose), 41.3-79.6% in data set [7] (500 mg single oral dose) and 39.9-58.4% in [7] (1000 mg single oral dose). Besides, the “range of maximum concentrations in feces” value in data set [7] (100 mg single oral dose) was 148 to 278 µg/g; in [7] (200 mg single oral dose), 164 to 454 µg/g; in data set [7] (500 mg single oral dose) it was 737 to 3316 µg/g; in data set [7] (1000 mg single oral dose), 1336 to 3154 µg/g. In addition, the “subjects with ramoplanin still detectable in feces” value in [7] (fourth day of study, single oral dose) is listed as 17 of 24. Moreover, the “time of maximum concentration and maximum percentage recovery in feces” value in data set [7] (single oral dose, not dose dependent) is given as “Day 2”. For the same molecule, in [7] (single oral doses up to 1000 mg and multiple oral doses 200, 400 or 800 mg BID for 10 days, bioassay and HPLC), the “detection in serum/plasma or urine” value is “not detected”. The “Gram-positive colony counts in feces” value in [8] (all doses (200, 400 or 800 mg BID), during the 10-day regimen) is “undetectable levels”. The “concentrations of staphylococci, streptococci and enterococci in stool” value in data set [8] (by Day 10, all subjects) is reported as “below the level of detection”. In data set [8] (first measurement on Day 4), the “effect on Gram-positive bacteria of the stool” value was “marked effect”. The “suppression of intestinal VRE (primary efficacy variable)” value in [9] (100 mg or 400 mg BID for seven days) is on record as “effectively suppressed intestinal VRE”. The “patients with no detectable VRE” value in data set [9] (Day 7, 100 mg BID for seven days, 17 of 21 patients) came out at 81.0%; in data set [9] (Day 7, 400 mg BID for seven days, 18 of 20 patients) it was 90.0%. In addition, the “patients remaining VRE free” value in data set [9] (100 mg BID, 6 of 21 patients) is on record as 28.6%; in data set [9] (400 mg BID, 7 of 17 patients), 41.2%. The “number of VRE-free patients” value in data set [9] (Day 21) is given as “comparable among all treatment groups”. The “efficacy by duration of treatment” value in data set [10] was “more effective than vancomycin administration for 5 days”. Moreover, the “absorption from the human gastrointestinal tract” value in [11] (200, 400 or 800 mg twice-a-day for ten days) is given as “No absorption”. Besides, the urine levels result in [11] (Day 1 and 5 and pooled urine up to 72-96 after the last dose) is on record as “No levels were found in urine”. Moreover, the average fecal concentration worked out at 827 µg/g in data set [11] (Day 3, 200 mg twice-a-day); 1742 µg/g in [11] (Day 3, 400 mg twice-a-day); 1901 µg/g in data set [11] (Day 3, 800 mg twice-a-day); 949 µg/g in data set [11] (Day 10, 200 mg twice-a-day); 1417 µg/g in [11] (Day 10, 400 mg twice-a-day); 2647 µg/g in data set [11] (Day 10, 800 mg twice-a-day). Moreover, the serum levels entry in data set [11] (Days 1, 5 and 10, hour 0.5, 1, 2, 3, 6, 9 and 12 after the morning dose) was “no serum levels of ramoplanin were detected”. Besides, the fecal concentrations post-treatment entry in [11] (after ten days of twice-a-day dosing) is listed as “remained detectable in some subjects four days post-treatment”. Moreover, the “cumulative recovery in feces, of the administered dose” value in data set [11] (up to Day 4 post-treatment) amounted to 25%.
